In patent US9169240B2, “Ketone linked benzothiazole inhibitors of endothelial lipase” (BRISTOL-MYERS SQUIBB COMPANY, priority 2012, dated 2015) one finds IC50 data, which are given here for 32 compounds.

Where only a bound is given, the exact number is not on record here.

Chain of Endothelial lipase (EL) (Q9Y5X9 21-500): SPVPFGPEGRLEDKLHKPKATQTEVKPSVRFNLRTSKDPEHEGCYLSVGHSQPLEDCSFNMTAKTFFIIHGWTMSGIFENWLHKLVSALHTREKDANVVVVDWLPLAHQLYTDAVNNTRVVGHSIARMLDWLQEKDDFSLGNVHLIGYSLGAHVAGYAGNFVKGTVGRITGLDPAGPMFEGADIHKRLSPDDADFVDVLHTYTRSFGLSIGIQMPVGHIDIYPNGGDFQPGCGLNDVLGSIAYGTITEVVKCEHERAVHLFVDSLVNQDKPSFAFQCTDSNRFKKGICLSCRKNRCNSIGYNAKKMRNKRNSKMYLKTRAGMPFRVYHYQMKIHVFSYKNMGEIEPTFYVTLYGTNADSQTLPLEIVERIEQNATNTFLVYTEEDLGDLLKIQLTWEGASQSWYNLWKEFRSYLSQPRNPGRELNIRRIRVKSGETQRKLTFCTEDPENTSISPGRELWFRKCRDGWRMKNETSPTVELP

This assay addresses Endothelial lipase (EL) (Homo sapiens (Human), UniProt Q9Y5X9). Description: Endothelial lipase (EL) activity assay with fluorescent substrate A10070 in DMPG vesicles. The assay is classed as biochemical. Here is the method: Endothelial lipase activity was measured using a fluorescent substrate, A10070, (Invitrogen, CA) doped into an artificial vesicle containing DMPG (Avanti Polar Lipids) as the excipient. Vesicles were prepared by combining 285 μL of 1 mM DMPG in a 1:1 mixture of MeOH and CHCl3 with 15 μL of 1 mM A10070 in a 1:1 mixture of MeOH and CHCl3. The mixture was dried under nitrogen and resuspended in 150 μL of 50 mM HEPES pH 8.0 buffer containing 100 mM NaCl and 0.2 mM EDTA. The sample was allowed to sit at rt for 15 min and then was sonicated 3×4 mins on ice with a Branson Sonicator using duty cycle 1. This preparation provides vesicles with a mole fraction of 0.05 for the FRET substrate.
The enzymatic assay was measured using white, opaque 96-well half area plates. Each well contained 60 μL of assay buffer (50 mM HEPES pH 8.0, 50 mM NaCl and 1 mM CaCl2) and 2 ul of a DMSO solution containing compound of interest. Conditioned media obtained from HT-1080 cells, which were transformed by RAGE technology (Athersys) to overexpress endogenous EL, was added and the reaction was allowed to incubate for 20 min at 37° C. with gentle agitation. The reaction was started by the addition of 20 μL of a 1:4 dilution of vesicles. The final total reaction volume was 100 μL. The reaction rates were measured on a Gemini plate reader with an excitation wavelength of 488 nm and an emission of 530 nm. Readings were taken every 20 seconds for 10 min with agitation between each reading. The slope of the linear portion of the readout was used to calculate the rate of the reaction.
For orientation: IC50 means the midpoint of a concentration-inhibition curve. A lower IC50 goes with greater potency in that assay. `CC1(Cc2nnc(C(=O)c3nc4ccc(-c5ccccc5)cc4s3)o2)NC(=O)N(CC(F)(F)F)C1=O` (centres unmarked) [Example 38, 5-methyl-5-((5-(6-phenylbenzo[d]thiazole-2-carbonyl)-1,3,4-oxadiazol-2-yl)methyl)-3-(2,2,2-trifluoro-ethyl)imidazol-idine-2,4-dione] came in with a half-inhibitory concentration (IC50) of 11 nM. That is a double-digit nanomolar value. The figure for `CC(C)N1C(=O)NC(C)(Cc2nnc(C(=O)c3nc4ccc(-c5ccccc5)cc4s3)o2)C1=O` (centres unmarked) [Example 39, 3-isopropyl-5-methyl-5-((5-(6-phenylbenzo-[d]thiazole-2-carbonyl)-1,3,4-oxadiazol-2-yl)methyl)-imidazol-idine-2,4-dione] is less than 10 nM; for `O=C(c1nnc(CC2NC(=O)N(c3ccccc3)C2=O)o1)c1nc2ccc(-c3ccccc3)cc2s1` (centres unmarked) [Example 41, 3-phenyl-5-((5-(6-phenylbenzo[d]thiazole-2-carbonyl)-1,3,4-oxadiazol-2-yl)methyl)-imidazol-idine-2,4-dione] it is 16 nM; for `CC(C)(C)CN1CC(c2nnc(C(=O)c3nc4ccc(-c5ccccc5)cc4s3)o2)C1` [Example 42] it is 20 nM. In turn, `CC(C)(C)CN1CCC(c2nnc(C(=O)c3nc4ccc(-c5ccccc5)cc4s3)o2)CC1` [Example 45, (5-(1-Neopentylpiperidin-4-yl)-1,3,4-oxadiazol-2-yl)(6-phenylbenzo[d]thiazol-2-yl)methanone] yielded an IC50 of 14 nM. The figure for `COc1nc(-c2nnc(C(=O)c3nc4ccc(-c5ccccc5)cc4s3)o2)c(O)c(=O)[nH]1` [Example 47, 5-Hydroxy-2-methoxy-6-(5-(6-phenylbenzo[d]thiazole-2-carbonyl)-1,3,4-oxadiazol-2-yl)pyrimidin-4(3H)-one] is 19 nM; for `NC(=O)NCc1nnc(C(=O)c2nc3ccc(-c4ccccc4)cc3s2)o1` [Example 49, 1-((5-(6-Phenylbenzo[d]thiazole-2-carbonyl)-1,3,4-oxadiazol-2-yl)methyl)urea] it is 25 nM; for `O=C(Cc1nnc(C(=O)c2nc3ccc(-c4ccccc4)cc3s2)o1)NC1CC1` [Example 50, N-Cyclopropyl-2-(5-(6-phenylbenzo[d]thiazole-2-carbonyl)-1,3,4-oxadiazol-2-yl)acetamide] it is less than 10 nM. The figure for `NC(=O)c1ccc(-c2ccc3nc(C(=O)c4nnc(N[C@H]5CCNC5=O)o4)sc3c2)cc1` [Example 51, (S)-4-(2-(5-((2-Oxopyrrolidin-3-yl)amino)-1,3,4-oxadiazole-2-carbonyl)benzo[d]thiazol-6-yl)benzamide] is less than 10 nM; for `COCCNc1nnc(C(=O)c2nc3ccc(-c4ccccc4)cc3s2)o1` [Example 52, (5-((2-methoxyethyl)amino)-1,3,4-oxadiazol-2-yl)(6-phenylbenzo[d]thiazol-2-yl)methanone] it is 110 nM; for `O=C(c1nnc(N[C@H]2CCNC2=O)o1)c1nc2ccc(-c3ccccc3)cc2s1` [Example 53, (S)-3-((5-(6-phenylbenzo[d]thiazole-2-carbonyl)-1,3,4-oxadiazol-2-yl)amino)pyrrolidin-2-one] it is less than 10 nM. The figure for `O=C(c1nnc(N[C@H]2CCNC2=O)o1)c1nc2ccc(-c3ccc(F)cc3)cc2s1` [Example 54, (S)-3-((5-(6-(4-fluorophenyl)benzo [d]thiazole-2-carbonyl)-1,3,4-oxadiazol-2-yl)amino)pyrrolidin-2-one] is less than 10 nM; for `O=C(c1nnc(N[C@H]2CCNC2=O)o1)c1nc2c(F)cc(-c3ccccc3)cc2s1` [Example 55, (S)-3-((5-(4-fluoro-6-phenylbenzo[d]thiazole-2-carbonyl)-1,3,4-oxadiazol-2-yl)amino)pyrrolidin-2-one] it is 10 nM; for `O=C(c1nnc(N[C@@H]2CCNC2=O)o1)c1nc2ccc(-c3ccccc3)cc2s1` [Example 56, (R)-3-((5-(6-phenylbenzo[d]thiazole-2-carbonyl)-1,3,4-oxadiazol-2-yl)amino)pyrrolidin-2-one] it is 46 nM. Compound `O=C(c1nnc(N[C@H]2CCOC2=O)o1)c1nc2ccc(-c3ccccc3)cc2s1` [Example 57, (S)-3-((5-(6-phenylbenzo[d]thiazole-2-carbonyl)-1,3,4-oxadiazol-2-yl)amino)dihydrofuran-2(3H)-one] came in with a 50% inhibitory concentration (IC50) of 22 nM. The figure for `NC(=O)CNc1nnc(C(=O)c2nc3ccc(-c4ccccc4)cc3s2)o1` [Example 58, 2-((5-(6-phenylbenzo[d]thiazole-2-carbonyl)-1,3,4-oxadiazol-2-yl)amino) acetamide] is 104 nM; for `O=C(c1nnc(NCCc2ccccc2)o1)c1nc2ccc(-c3ccc(F)cc3)cc2s1` [Example 59, (6-(4-fluorophenyl)benzo[d]thiazol-2-yl)(5-(phenethylamino)-1,3,4-oxadiazol-2-yl)methanone] it is 49 nM; for `O=C(c1nnc(NCCc2ccc(F)cc2)o1)c1nc2ccc(-c3ccc(F)cc3)cc2s1` [Example 60, (5-((4-fluorophenethyl)amino)-1,3,4-oxadiazol-2-yl)(6-(4-fluorophenyl)benzo[d]thiazol-2-yl)methanone] it is 56 nM. The figure for `COC(=O)[C@H](COC(C)(C)C)Nc1nnc(C(=O)c2nc3ccc(-c4ccc(F)cc4)cc3s2)o1` [Example 61, (S)-methyl 3-(tert-butoxy)-2-((5-(6-(4-fluorophenyl)benzo[d]thiazole-2-carbonyl)-1,3,4-oxadiazol-2-yl)amino)propanoate] is 140 nM; for `COc1ccc(CCNc2nnc(C(=O)c3nc4ccc(-c5ccc(F)cc5)cc4s3)o2)cc1` [Example 62, (6-(4-fluorophenyl)benzo[d]thiazol-2-yl)(5-((4-methoxyphenethyl)amino)-1,3,4-oxadiazol-2-yl)methanone] it is 240 nM. Regarding `O=C(c1nnc(NCCc2ccccc2F)o1)c1nc2ccc(-c3ccc(F)cc3)cc2s1` [Example 63, (5-((2-fluorophenethyl)amino)-1,3,4-oxadiazol-2-yl)(6-(4-fluorophenyl)benzo[d]thiazol-2-yl)methanone], 290 nM corresponded to half-maximal inhibition (IC50). Take `O=C(c1nnc(NCCc2ccc(Cl)cc2)o1)c1nc2ccc(-c3ccc(F)cc3)cc2s1` [Example 64, (5-((4-chlorophenethyl)amino)-1,3,4-oxadiazol-2-yl)(6-(4-fluorophenyl)benzo[d]thiazol-2-yl)methanone]: half-maximal inhibition (IC50) required 6.6 nM. As to `C[C@H](Nc1nnc(C(=O)c2nc3ccc(-c4ccc(F)cc4)cc3s2)o1)c1ccc(Cl)cc1` [Example 65, (S)-(5-((1-(4-chlorophenyl)ethyl)amino)-1,3,4-oxadiazol-2-yl)(6-(4-fluorophenyl)benzo[d]thiazol-2-yl)methanone], the IC50 was determined as 420 nM. As for `O=C(c1nnc(NC2CC2)o1)c1nc2ccc(-c3ccc(F)cc3)cc2s1` [Example 66, (5-(cyclopropylamino)-1,3,4-oxadiazol-2-yl)(6-(4-fluorophenyl)benzo[d]thiazol-2-yl)methanone], the figure is 290 nM. With `CC(C)(C)OC(=O)CNc1nnc(C(=O)c2nc3ccc(-c4ccccc4)cc3s2)o1` [Example 67, tert-butyl 2-((5-(6-phenylbenzo[d]thiazole-2-carbonyl)-1,3,4-oxadiazol-2-yl)amino)acetate], it took 130 nM to reach half-maximal inhibition (IC50).

In turn, `O=C(c1nnc(N[C@H](CCO)C(=O)O)o1)c1nc2ccc(-c3ccccc3)cc2s1` [Example 68, (R)-4-hydroxy-2-((5-(6-phenylbenzo[d]thiazole-2-carbonyl)-1,3,4-oxadiazol-2-yl)amino)butanoic acid] displayed a 50% inhibitory concentration (IC50) of 27 nM.

`COc1ccc(CNc2nnc(C(=O)c3nc4ccc(-c5ccccc5)cc4s3)o2)c(OC)c1` [Example 69] showed an IC50 of 310 nM.

For the compound `CN1CCC(Nc2nnc(C(=O)c3nc4ccc(-c5ccccc5)cc4s3)o2)C1=O` (centres unmarked) [Example 70, 1-methyl-3-((5-(6-phenylbenzo[d]thiazole-2-carbonyl)-1,3,4-oxadiazol-2-yl)amino)pyrrolidin-2-one], the IC50 amounted to 190 nM. Against the preceding compound, the IC50 is about 1.6-fold lower. In turn, `CN1CCC(Nc2nnc(C(=O)c3nc4ccc(-c5ccccc5)cc4s3)o2)C1=O` (centres unmarked) [Example 71, 1-methyl-3-((5-(6-phenylbenzo[d]thiazole-2-carbonyl)-1,3,4-oxadiazol-2-yl)amino)pyrrolidin-2-one] had an IC50 of 22 nM. This IC50 lies about 8.6-fold lower than the previous one. `NS(=O)(=O)CCNc1nnc(C(=O)c2nc3ccc(-c4ccccc4)cc3s2)o1` [Example 72, 2-((5-(6-phenylbenzo[d]thiazole-2-carbonyl)-1,3,4-oxadiazol-2-yl)amino)ethanesulfonamide]: half-maximal inhibition (IC50) required 88 nM. Regarding `O=C(c1nnc(NCCc2ccncc2)o1)c1nc2ccc(-c3ccccc3)cc2s1` [Example 73, (6-phenylbenzo[d]thiazol-2-yl)(5-((2-(pyridin-4-yl)ethyl)amino)-1,3,4-oxadiazol-2-yl)methanone], the IC50 was 180 nM.

Compound `CC(C)NC(=O)CNc1nnc(C(=O)c2nc3ccc(-c4ccccc4)cc3s2)o1` [Example 74, N-isopropyl-2-((5-(6-phenylbenzo [d]thiazole-2-carbonyl)-1,3,4-oxadiazol-2-yl)amino)acetamide] returned a half-maximal inhibitory concentration (IC50) of 150 nM. The IC50 values of the last two compounds are within 1.5-fold of each other.
